Laboratory results reported in patent publication US20120184556A1, “SUBSTITUTED ENZOIMIDAZOLESULFONAMIDES AND SUBSTITUTED INDOLESULFONAMIDES AS MGLUR4 POTENTIATORS” (priority 2009, published 2012).
Where a name gives a salt, the structure may show the parent alone.

Biological target: T1, human mGluR4 (Homo sapiens, UniProt Q14833)
T1 construct: expressed in transfected cells; host or cells: Chinese Hamster Ovary (CHO) cells
Assay: human mGluR4 potentiation assay, CHO cells, Fluo-4 calcium fluorescence, agonist EC20
Type: cell-based
Settings: for Emax: CHO, maximum extent of potentiation, human mGluR4, read-out: GluMax; for EC50: potentiation of human mGluR4 response to EC20 agonist, read-out: hEC50
Description: The disclosed compounds and compositions can be evaluated for their ability to act as a potentiator of metabotropic glutamate receptor activity, in particular mGluR4 activity, by any suitable known methodology known in the art. For example, Chinese Hamster Ovary (CHO) cells transfected with human mGluR4 or HEK cells co-transfected with rat mGluR4 and the G-protein regulated Inwardly Rectifying Potassium channel (GIRK) were plated in clear bottom assay plates for assay in a Hamamatsu FDSS Fluorometric Plate Reader. The cells were loaded with either the Ca2+-sensitive fluorescent dye Fluo-4 or the thallium responsive dye BTC, AM and the plates were washed and placed into a suitable kinetic plate reader. For human mGluR4 assays, a fluorescence baseline was established for 3-5 seconds, the disclosed compounds were then added to the cells, and the response in cells was measured. Approximately two and a half minutes later, a concentration of mGluR4 agonist (e.g. glutamate or L-AP4) eliciting approximately 20% (EC20) of the maximal agonist response was added to the cells, and the response was measured. Two minutes later, a concentration of mGluR4 agonist (e.g. glutamate or L-AP4) eliciting 80% (EC80) of the maximal agonist response was added to the cells, and the response was measured. For rat mGluR4/GIRK experiments, a baseline was established for approximately five seconds, disclosed compounds were added, and either an EC20 or EC80 concentration of agonist was added approximately two and one half minutes later. Potentiation of the agonist response of mGluR4 by the disclosed compounds was observed as an increase in response to the EC20 concentration of agonist in the presence of compound compared to the response to agonist in the absence of compound. Similarly, antagonism of the agonist response of mGluR4 by the disclosed compounds was observed as a decrease in response to the EC80 concentration of agonist in the presence of compound compared to the response to agonist in the absence of compound.
The above described assay operated in two modes. In the first mode, a range of concentrations of the disclosed compounds are added to cells, followed by a single fixed concentration of agonist. If the compound acts as a potentiatior, an EC50 value for potentiation and a maximum extent of potentiation by the compound at this concentration of agonist is determined by non-linear curve fitting. If the compound acts as a noncompetitive antagonist, an IC50 value is determined by non-linear curve fitting. In the second mode, several fixed concentrations of the disclosed compounds are added to various wells on a plate, followed by a range in concentrations of agonist for each concentration of disclosed compound. The EC50 values for the agonist at each concentration of compound are determined by non-linear curve fitting. A decrease in the EC50 value of the agonist with increasing concentrations of the sample compound (a leftward shift of the agonist concentration-response curve) is an indication of the degree of mGluR4 potentiation at a given concentration of the sample compound. A decrease in the maximal response of the agonist with increasing concentrations of the sample compounds, with or without a rightward shift in agonist potency, is an indication of the degree of noncompetitive antagonism at mGluR4. The second mode also indicates whether the sample compounds also affect the maximum response to mGluR4 to agonists.

T1 sequence (Q14833 33-912): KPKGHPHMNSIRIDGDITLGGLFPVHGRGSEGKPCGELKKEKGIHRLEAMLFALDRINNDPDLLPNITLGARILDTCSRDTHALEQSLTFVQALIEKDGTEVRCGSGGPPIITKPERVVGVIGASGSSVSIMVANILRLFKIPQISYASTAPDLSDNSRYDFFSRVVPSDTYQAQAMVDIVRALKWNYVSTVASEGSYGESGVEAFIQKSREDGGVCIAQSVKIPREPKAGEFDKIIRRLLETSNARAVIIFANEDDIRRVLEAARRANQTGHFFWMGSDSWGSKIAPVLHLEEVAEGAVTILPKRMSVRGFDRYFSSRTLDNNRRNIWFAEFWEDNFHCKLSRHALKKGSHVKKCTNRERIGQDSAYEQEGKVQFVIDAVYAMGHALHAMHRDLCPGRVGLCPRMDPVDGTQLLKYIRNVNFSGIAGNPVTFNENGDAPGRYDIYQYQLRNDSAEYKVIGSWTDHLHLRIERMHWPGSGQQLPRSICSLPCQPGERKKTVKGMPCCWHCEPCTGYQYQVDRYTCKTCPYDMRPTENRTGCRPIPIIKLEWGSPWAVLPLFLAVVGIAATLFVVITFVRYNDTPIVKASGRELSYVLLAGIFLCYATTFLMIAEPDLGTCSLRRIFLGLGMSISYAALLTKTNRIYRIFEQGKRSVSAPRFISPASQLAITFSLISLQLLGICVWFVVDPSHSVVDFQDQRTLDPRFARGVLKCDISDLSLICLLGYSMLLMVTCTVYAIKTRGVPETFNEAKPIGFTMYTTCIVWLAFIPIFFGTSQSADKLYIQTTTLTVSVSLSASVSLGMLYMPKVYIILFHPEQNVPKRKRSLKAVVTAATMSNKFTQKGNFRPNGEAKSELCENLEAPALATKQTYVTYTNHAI

Compound | Emax | EC50
CCc1ccc(NS(=O)(=O)c2ccc3[nH]c(-c4ccsc4)nc3c2)cc1 [Example 48, N-(4-ethylphenyl)-2-(thiophen-3-yl)-1H-benzo[d]imidazole-5-sulfonamide] | 85% | 313 nM
O=S(=O)(Nc1ccccc1Cl)c1ccc2[nH]c(-c3cccc(Cl)n3)nc2c1 [Example 12, N-(2-Chlorophenyl)-2-(6-chloropyridin-2-yl)-1H-benzo[d]imidazole-5-sulfonamide] | 98% | 116 nM
Cn1ccnc1-c1nc2cc(S(=O)(=O)Nc3ccccc3Cl)ccc2[nH]1 [Example 41, N-(2-chlorophenyl)-2-(1-methyl-1H-imidazol-2-yl)-1H-benzo[d]imidazole-5-sulfonamide] | 83% | 9470 nM
O=S(=O)(Nc1ccccc1F)c1ccc2[nH]c(-c3ccncn3)nc2c1 [Example 39, N-(2-fluorophenyl)-2-(pyrimidin-4-yl)-1H-benzo[d]imidazole-5-sulfonamide] | 156% | 4820 nM
O=S(=O)(Nc1ccccc1Cl)c1ccc2[nH]c(-c3ccsc3)nc2c1 [Example 6, N-(2-Chlorophenyl)-2-(thiophen-3-yl)-1H-benzo[d]imidazole-5-sulfonamide] | 111% | 361 nM
O=S(=O)(Nc1ccccc1F)c1ccc2[nH]c(-c3ccccn3)nc2c1 [Example 33, N-(2-fluorophenyl)-2-(pyridin-2-yl)-1H-benzo[d]imidazole-5-sulfonamide] | 246% | 186 nM
O=S(=O)(Nc1ccccc1Cl)c1ccc2[nH]c(-c3cccs3)nc2c1 [Example 9, N-(2-Chlorophenyl)-2-(thiophen-2-yl)-1H-benzo[d]imidazole-5-sulfonamide TFA salt] | 103% | 318 nM
O=S(=O)(Nc1ccccc1Cl)c1ccc2[nH]c(-c3ccccc3)nc2c1 [Example 2, N-(2-Chlorophenyl)-2-phenyl-1H-benzo[d]imidazole-5-sulfonamide TFA salt] | 77% | 353 nM
O=S(=O)(Nc1ccc(F)cc1F)c1ccc2[nH]c(-c3cccc(F)n3)nc2c1 [Example 52, N-(2,4-difluorophenyl)-2-(6-fluoropyridin-2-yl)-1H-benzo[d]imidazole-5-sulfonamide] | 226% | 140 nM
O=S(=O)(Nc1ccccc1Cl)c1ccc2[nH]c(-c3cccnc3)nc2c1 [Example 5, N-(2-chlorophenyl)-2-(pyridin-3-yl)-1H-benzo[d]imidazole-5-sulfonamide] | 84% | 5250 nM
O=S(=O)(Nc1ccccc1Cl)c1ccc2[nH]c(-c3cc(Br)no3)nc2c1 [Example 34, 2-(3-bromoisoxazol-5-yl)-N-(2-chlorophenyl)-1H-benzo[d]imidazole-5-sulfonamide] | 149% | 1100 nM
O=S(=O)(Nc1ccccc1Cl)c1ccc2[nH]c(C3CCCCC3)nc2c1 [Example 4, N-(2-Chlorophenyl)-2-cyclohexyl-1H-benzo[d]imidazole-5-sulfonamide] | 141% | 1760 nM
Cc1cc(-c2nc3cc(S(=O)(=O)Nc4ccccc4Cl)ccc3[nH]2)on1 [Example 35, N-(2-chlorophenyl)-2-(3-methylisoxazol-5-yl)-1H-benzo[d]imidazole-5-sulfonamide] | 87% | 1980 nM
O=S(=O)(Nc1ccccc1Cl)c1ccc2[nH]c(-c3ccno3)nc2c1 [Example 43, N-(2-chlorophenyl)-2-(isoxazol-5-yl)-1H-benzo[d]imidazole-5-sulfonamide] | 69% | 2830 nM
O=S(=O)(Nc1ccccc1F)c1ccc2[nH]c(-c3nccs3)nc2c1 [Example 40, N-(2-fluorophenyl)-2-(thiazol-2-yl)-1H-benzo[d]imidazole-5-sulfonamide] | 222% | 756 nM
Cc1ccc(-c2nc3cc(S(=O)(=O)Nc4ccccc4Cl)ccc3[nH]2)o1 [Example 29, N-(2-chlorophenyl)-2-(5-methylfuran-2-yl)-1H-benzo[d]imidazole-5-sulfonamide] | 52% | 76 nM
